# Assays:
# [1] = tested on: NADH oxidase; assay: NADH oxidase activity of CFK microsomes from uninfected cells; conditions: read-out: ED50, inhibition of NADH oxidase activity; Plasma membrane-free CFK microsomes (Golgi-enriched) from uninfected cells
# [2] = tested on: Crandall Feline Kidney cells (CFK cells), uninfected; assay: time for complete cell killing, uninfected cells
# [3] = tested on: HIV infected human MOLT-4 cells; assay: differential killing of HIV infected cells; format: cell-based; conditions: FIGS. 8 and 9
# [4] = tested on: Crandall Feline Kidney cells infected with Feline Immunodeficiency Virus (FIV); assay: time for complete cell killing, FIV-infected cells
# [5] = tested on: H8; assay: soft agar disk diffusion zone of inhibition assay; format: cell-based, human; conditions: 25 ug/disk
# Excerpt: (§1) The following human tumors were used: Human adenosquamous lung tumor H-125 (7) and colon tumors H8, HCT-116, and CX-1 were used for in vitro testing only. Each human cell line was maintained in culture until plating was done. HCT-116, H8, and CX-1 were maintained in McCoy's media and heat inactivated fetal bovine serum (11% FBS). It was passaged (1:5 dilution) twice week following enzymatic dissociation using a trypsin/PBS-EDTA mixture. H-125 was maintained in CMRL/Fischer media (1:1) with 11% FBS. It was mechanically dissociated and passaged (3:10 dilution) weekly. For the plating assay, all cells were mechanically dispersed and diluted in the CMRL/Fischer. media mixture.
# [6] = tested on: CX-1; assay: soft agar disk diffusion zone of inhibition assay; format: cell-based, human; conditions: 25 ug/disk
# Excerpt: as §1
# [7] = tested on: L1210; assay: soft agar disk diffusion zone of inhibition assay; format: cell-based, mice; conditions: 25 ug/disk
# [8] = in vivo chemotherapy of SC transplanted tumor; parameters: species or system mice; conditions: mouse, in vivo; C38; IV; days: Glaucarubinone 3,5-10, Holacanthone 3-12, Glaucarubolone 3-6, Chaparrinone 3-9; read-out: MTD Total Dose
# Excerpt: (§2) Mice. Inbreds mice used were C57B1/6, C3H/He, Balb/c, and DBA/2; hybrids were: B6D2F1 (C57B1/6 females×DBA/2 males), and CD2F1 (Balb/c females×DBA/2 males). All mice were obtained from the Frederick Cancer Research Facility, Frederick, Md.
# (§3) Tumors were maintained in the mouse strain of origin and were transplanted into either an appropriate F1 hybrid or the strain of origin for therapy trials. All mice were over 17 g at the start of therapy; the range of individual body weights in each experiment was within 2 g. The mice were supplied food and water ad libitum.
# (§4) Antitumor Agents. The compound easily dissolved in the diluent which consisted of 3% [V/V (100%-Pure)] Ethanol, 1% (V/V) polyoxyethylanesorbitan monopalmitate (P.O.E.40) and 96% sterile distilled water. The primary route of administration was intravenous (IV).
# (§5) […] Chemotherapy. The methods of protocol design, tumor transplantation, drug treatment, endpoint determination, definition of terms, toxicity evaluation, data analysis, quantification of tumor cell kill, and the biologic significance of the drug treatment results with transplantable tumors have been presented. The following is a brief summary of those methods as they apply to the work described.
# (§6) The animals necessary to begin an experiment were pooled, implanted bilaterally SC on day 0 with 30 to 60 mg tumor fragments using a 12 gauge trocar, and again pooled before randomization to the various treatment and control group. Chemotherapy was either started within 3 days after tumor implantation while the number of cells per mouse was relatively small (10^7 to 10^8 cells), or allowed to grow to palpation (about 3×10^8 cells) in a more advanced stage trial.
# (§7) Tumors were measured with a caliper either once or twice weekly (as needed) until either tumors exceeded 1500 mg or cure was. assured. Tumor weights were estimated from two-dimensional measurements:
# (§8) Tumor Weight (mg)=(a×b^2)/2, where a and b are the tumor length and width (mm) respectively.
# (§9) Tumor growth delay. (T-C value), where T is the median time (in days) required for the treatment group tumors to reach a predetermined size, and C is the median time (in days) for the control group tumors to reach the same size. Tumor-free survivors were excluded from these calculations (cures were tabulated separately).
# (§10) Calculation of tumor cell kill. For SC growing tumors, the log10 cell kill was calculated from the following formula: [formula]
# (§11) Where T-C is the tumor growth delay (in days) as described above and Td is the tumor volume doubling time (in days), the latter estimated from the best fit straight line from a log-linear growth plot of the control-group tumors in exponential growth (500 to 1500 mg range). The conversion of the T-C values of log10 cell kill is possible because the Td for tumors regrowing post-treatment approximated the Td values of the tumors in untreated control mice.
# (§12) Determination of activity by tumor growth inhibition (T/C value). Measurements were carried out simultaneously in both the treatment and control groups. When the control group tumors reached approximately 750-1500 mg in size (median of group), the median tumor weight of each group was determined (including zeros).
# [9] = tested on: colon adenocarcinoma #38 [C38]; assay: in vivo chemotherapy of SC transplanted tumor; parameters: species or system mice
# Excerpt: as §2, §3, §4, §5, §6, §7, §8, §9, §10, §11, §12
# [10] = tested on: leukemia and solid tumor cells; assay: in vitro differential cytotoxicity, solid tumor versus leukemia; format: cell-based; conditions: solid tumor versus leukemia zones
# [11] = tested on: HeLa cells; assay: growth of HeLa cells under different redox poise; format: cell-based; conditions: 10^−7 M, no drug 725
# Description: The reduced environment was obtained by addition of 100 μM cysteine and the oxidized environment by addition of 10 μM ter-butylhydroperoxide.
# [12] = tested on: Tomato plants; assay: growth of plants in peat after treatment; format: in vivo
# Description: Tomato plants about 3.5 cm high at the time of treatment were grown in peat in a flat of 1.5 inch diameter compartments and were treated with either aqueous simalikalactone (solution QD-1) or aqueous glaucarubolone (solution QD-2) containing 0.1% Triton X-100. The final volume/plant was 10 μ1 for the aqueous solution and 200 µl of the aqueous solution containing Triton X-100. […] With the aqueous treatment, plants also were inhibited but not as markedly as with detergent.
# [13] = tested on: C38; assay: soft agar disk diffusion zone of inhibition assay; format: cell-based, mice; conditions: 25 ug/disk
# [14] = tested on: M17/Adr; conditions: multidrug resistant, p-glycoprotein expressing mammary tumor versus leukemia
structure (smiles),measurement,setting,value
"CC1=CC(=O)C(O)C2(C)C1CC1OC(=O)C(O)C3C(C)C(O)C4(O)OCC13C42 (centres unmarked) [Glaucarubolone, glaucarubolone]",EC50,[1],> 10 µM
same,"Time for complete cell killing (>98%), Uninfected",[2]; 3 × 10^−4 M,120 h
same,"Time for complete cell killing (>98%), Uninfected",[2]; 3 × 10^−5 M,120 h
same,"Time for complete cell killing (>98%), Uninfected",[2]; 3 × 10^−6 M,144 h
same,"Time for complete cell killing (>98%), Uninfected",[2]; 3 × 10^−7 M,192 h
same,"Time for complete cell killing (>98%), Uninfected",[2]; 3 × 10^−8 M,>192 h
same,"Time for complete cell killing (>98%), Uninfected",[2]; 3 × 10^−9 M,>192 h
same,killing of HIV infected MOLT-4 cells compared to uninfected cells,[3],differentially killed at two log orders less
same,"Time for complete cell killing (>98%), FIV-Infected",[4]; 3 × 10^−4 M,>168 h
same,"Time for complete cell killing (>98%), FIV-Infected",[4]; 3 × 10^−5 M,>168 h
same,"Time for complete cell killing (>98%), FIV-Infected",[4]; 3 × 10^−6 M,>168 h
same,"Time for complete cell killing (>98%), FIV-Infected",[4]; 3 × 10^−7 M,>168 h
same,"Time for complete cell killing (>98%), FIV-Infected",[4]; 3 × 10^−8 M,>168 h
same,"Time for complete cell killing (>98%), FIV-Infected",[4]; 3 × 10^−9 M,>168 h
same,killing of FIV-infected compared to non-infected CFK cells,"[4]; FIGS. 6 and 7, Table 3",differential killing of infected cells
same,zone of inhibition H8,[5],650 ZONE UNITS
same,zone of inhibition CX-1,[6],100 ZONE UNITS
same,zone of inhibition L1210,[7],25:100 ZONE UNITS
same,MTD,[8],151 mg/kg
same,Cures,"[9]; C38, IV at MTD, cured/total mice",1/5
same,"in vivo activity against C38, in words","[9]; mouse, in vivo",therapeutic activity
same,solid tumor selectivity in vitro,[10],demonstrated solid tumor selectivity
same,"Growth HeLa cells after 72 h, Oxidized",[11]; 10 μM ter-butylhydroperoxide,500 cells/mm^2
same,"Growth HeLa cells after 72 h, Reduced",[11]; 100 μM cysteine,700 cells/mm^2
same,"Growth HeLa cells after 72 h, In situ",[11],720 cells/mm^2
same,"effect on tomato plants, in words","[12]; 1:1000 and 1:10,000 dilutions in detergent solution, 30 days after treatment",still inhibited
same,"effect on tomato plants, in words",[12]; 100 Mm diluted 1:100 in 0.1% Triton X-100,did not grow and eventually died
same,zone of inhibition C38,[13],900 ZONE UNITS
same,differential / selectivity for M17/Adr (Mam 17/Adr),[14],demonstrated selectivity
